The test concerns the target human TRPM8 (Homo sapiens (Human), UniProt Q7Z2W7). The test is described as follows: TRPM8 inhibition assay (menthol-induced calcium influx, FDSS). The class given is cell-based. The settings on record: HEK293 cells stably expressing human TRPM8; 100 μmol/L menthol; Fura-2AM calcium signal; read-out: TRPM8 Blocking Test (IC50/nmol/L). As for the experimental part: The functional activity of a test compound was determined by measuring change in intracellular calcium concentration using a calcium sensitive fluorescent dye. The change in fluorescent signal was measured by the cell imaging technology by Hamamatsu Photonics's Functional Drug Screening System (FDSS).
HEK293 cells stably expressing human TRPM8 were grown in a flask. On assay day, the culture medium was removed from the flask, and cells were washed with phosphate-buffered saline (PBS) and harvested with PBS containing 2 mmol/L of ethylenediaminetetraacetic acid disodium salt (EDTA-2Na). […] Subsequently, suspended 20,000 to 50,000 cells per well were incubated with a test compound (at varying concentrations) in each well at 37° C. for 20 minutes. Change in intracellular calcium concentration evoked by 100 μmol/L of menthol was measured for 2 minutes using FDSS. […] The concentration-response curve was generated using the average of quadruplicate wells for each data point.
Chain of human TRPM8 (Q7Z2W7 whole entry): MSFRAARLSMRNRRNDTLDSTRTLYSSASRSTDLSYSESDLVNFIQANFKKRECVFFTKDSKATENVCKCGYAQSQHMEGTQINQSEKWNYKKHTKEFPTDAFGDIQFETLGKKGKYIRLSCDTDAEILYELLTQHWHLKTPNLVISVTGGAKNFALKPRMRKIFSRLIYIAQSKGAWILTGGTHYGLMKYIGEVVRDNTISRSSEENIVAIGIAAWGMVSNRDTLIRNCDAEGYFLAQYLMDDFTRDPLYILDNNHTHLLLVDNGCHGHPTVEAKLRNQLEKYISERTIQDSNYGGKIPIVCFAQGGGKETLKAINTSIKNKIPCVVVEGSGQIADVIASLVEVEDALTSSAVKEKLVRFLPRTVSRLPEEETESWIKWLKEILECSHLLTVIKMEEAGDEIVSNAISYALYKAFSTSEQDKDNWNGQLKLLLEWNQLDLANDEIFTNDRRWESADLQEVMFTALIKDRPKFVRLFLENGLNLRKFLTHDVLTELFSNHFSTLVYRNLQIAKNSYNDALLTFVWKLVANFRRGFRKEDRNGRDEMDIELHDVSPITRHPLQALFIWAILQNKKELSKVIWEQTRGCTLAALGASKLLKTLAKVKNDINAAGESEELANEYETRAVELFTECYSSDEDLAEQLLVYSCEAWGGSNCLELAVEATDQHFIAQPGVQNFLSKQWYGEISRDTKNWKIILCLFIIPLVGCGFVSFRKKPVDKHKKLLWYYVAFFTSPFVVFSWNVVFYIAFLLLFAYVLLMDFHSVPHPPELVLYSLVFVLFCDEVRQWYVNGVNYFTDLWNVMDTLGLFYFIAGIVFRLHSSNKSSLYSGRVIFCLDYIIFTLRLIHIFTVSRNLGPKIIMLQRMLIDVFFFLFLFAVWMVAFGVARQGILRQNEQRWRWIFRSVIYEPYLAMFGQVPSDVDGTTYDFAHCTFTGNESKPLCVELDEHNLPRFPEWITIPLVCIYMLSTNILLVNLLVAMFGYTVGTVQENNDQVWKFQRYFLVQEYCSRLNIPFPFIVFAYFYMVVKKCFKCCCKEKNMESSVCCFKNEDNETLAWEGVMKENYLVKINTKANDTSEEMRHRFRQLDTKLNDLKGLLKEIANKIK
`O=S(=O)(c1ccc(-c2nnn[nH]2)cc1)N(Cc1ccc(OC(F)(F)F)cc1)c1ncc2ccccc2c1C1CC1` [Example 1, N-(4-cyclopropylisoquinolin-3-yl)-4-(1H-tetrazol-5-yl)-N-[4-(trifluoromethoxy)benzyl]benzenesulfonamide]: the IC50 is 0.3 nmol/L.

Turning to `O=S(=O)(c1ccc(-c2nnn[nH]2)nc1)N(Cc1ccc(OC(F)(F)F)cc1)c1ncc2ccccc2c1C1CC1` [Example 2, N-(4-cyclopropylisoquinolin-3-yl)-6-(1H-tetrazol-5-yl)-N-[4-(trifluoromethoxy)benzyl]pyridine-3-sulfonamide], the IC50 turned out to be 0.7 nmol/L. Then `O=S(=O)(c1ccc(-c2nnn[nH]2)cn1)N(Cc1ccc(OC(F)(F)F)cc1)c1ncc2ccccc2c1C1CC1` [Example 3, N-(4-cyclopropylisoquinolin-3-yl)-5-(1H-tetrazol-5-yl)-N-[4-(trifluoromethoxy)benzyl]pyridine-2-sulfonamide], with 7.6 nmol/L; and `O=c1[nH]nnn1-c1ccc(S(=O)(=O)N(Cc2ccc(OC(F)(F)F)cc2)c2ncc3ccccc3c2C2CC2)cc1` [Example 4, N-(4-cyclopropylisoquinolin-3-yl)-4-(5-oxo-4,5-dihydro-1H-tetrazol-1-yl)-N-[4-(trifluoromethoxy)benzyl]benzenesulfonamide], with 1.1 nmol/L. The value for `O=S(=O)(c1ccc(-c2ncn[nH]2)cc1)N(Cc1ccc(OC(F)(F)F)cc1)c1ncc2ccccc2c1C1CC1` [Example 5, N-(4-cyclopropylisoquinolin-3-yl)-4-(2H-1,2,4-triazol-3-yl)-N-[4-(trifluoromethoxy)benzyl]benzenesulfonamide] was 3.4 nmol/L. The value for `O=S(=O)(c1ccc(-c2ncn[nH]2)nc1)N(Cc1ccc(OC(F)(F)F)cc1)c1ncc2ccccc2c1C1CC1` [Example 6, N-(4-cyclopropylisoquinolin-3-yl)-6-(1H-1,2,4-triazol-5-yl)-N-[4-(trifluoromethoxy)benzyl]pyridine-3-sulfonamide] was 1.7 nmol/L. For the compound `O=c1[nH]c(-c2ccc(S(=O)(=O)N(Cc3ccc(OC(F)(F)F)cc3)c3ncc4ccccc4c3C3CC3)cc2)no1` [Example 7, N-(4-cyclopropylisoquinolin-3-yl)-4-(5-oxo-4,5-dihydro-1,2,4-oxadiazol-3-yl)-N-[4-(trifluoromethoxy)benzyl]benzenesulfonamide], the IC50 was found to be 1 nmol/L.

On to `O=c1[nH]c(-c2ccc(S(=O)(=O)N(Cc3ccc(OC(F)(F)F)cc3)c3ncc4ccccc4c3C(F)(F)F)cc2)no1` [Example 8, 4-(5-oxo-4,5-dihydro-1,2,4-oxadiazol-3-yl)-N-[4-(trifluoromethoxy)benzyl]-N-[4-(trifluoromethyl)isoquinolin-3-yl]benzenesulfonamide], for which the IC50 was determined as 2.3 nmol/L. Then `O=c1[nH]c(-c2ccc(S(=O)(=O)N(Cc3ccc(OC(F)(F)F)cc3)c3ncc4ccccc4c3C3CC3)cn2)no1` [Example 9, N-(4-cyclopropylisoquinolin-3-yl)-6-(5-oxo-4,5-dihydro-1,2,4-oxadiazol-3-yl)-N-[4-(trifluoromethoxy)benzyl]pyridine-3-sulfonamide], with 1.1 nmol/L; and `CC(=O)NCc1ccc(S(=O)(=O)N(Cc2ccc(OC(F)(F)F)cc2)c2ncc3ccccc3c2C2CC2)cc1` [Example 10, N-[4-({(4-cyclopropylisoquinolin-3-yl)[4-(trifluoromethoxy)benzyl]amino}sulfonyl)benzyl]acetamide], with 23.9 nmol/L; and `CS(=O)(=O)NCc1ccc(S(=O)(=O)N(Cc2ccc(OC(F)(F)F)cc2)c2ncc3ccccc3c2C2CC2)cc1` [Example 11, N-(4-cyclopropylisoquinolin-3-yl)-4-{[(methylsulfonyl)amino]methyl}-N-[4-(trifluoromethoxy)benzyl]benzenesulfonamide], with 29.5 nmol/L.

Consider `O=S(=O)(c1ccc(CNS(=O)(=O)C(F)(F)F)cc1)N(Cc1ccc(OC(F)(F)F)cc1)c1ncc2ccccc2c1C1CC1` [Example 12, N-(4-cyclopropylisoquinolin-3-yl)-N-[4-(trifluoromethoxy)benzyl]-4-({[(trifluoromethyl)sulfonyl]amino}methyl)benzenesulfonamide], for which the IC50 was determined as 40.2 nmol/L.

`O=c1[nH][nH]c2cc(S(=O)(=O)N(Cc3ccc(OC(F)(F)F)cc3)c3ncc4ccccc4c3C3CC3)ccc12` [Example 13, N-(4-cyclopropylisoquinolin-3-yl)-3-oxo-N-[4-(trifluoromethoxy)benzyl]-2,3-dihydro-1H-indazole-6-sulfonamide]: the IC50 was found to be 4.3 nmol/L. The value for `Cc1c(N(Cc2ccc(OC(F)(F)F)cc2)S(=O)(=O)c2ccc(-c3nnn[nH]3)cc2)nc(C2CC2)c2ccccc12` [Example 14] was 0.7 nmol/L; that for `O=S(=O)(c1ccc(-c2nnn[nH]2)cc1)N(Cc1ccc(OC(F)(F)F)cc1)c1ncc2ccccc2c1C(F)(F)F` [Example 15] was 2 nmol/L. Take `O=S(=O)(c1ccc(-c2nnn[nH]2)nc1)N(Cc1ccc(OC(F)(F)F)cc1)c1ncc2ccccc2c1C(F)(F)F` [Example 16]: the IC50 was found to be 1.6 nmol/L.

With `Cc1cc(S(=O)(=O)N(Cc2ccc(OC(F)(F)F)cc2)c2ncc3ccccc3c2C2CC2)ccc1-c1nnn[nH]1` [Example 17], the IC50 worked out at 0.3 nmol/L. Then `O=S(=O)(c1ccc(-c2nnn[nH]2)cc1)N(Cc1ccc(C(F)(F)F)cn1)c1ncc2ccccc2c1C1CC1` [Example 18], with 0.9 nmol/L. Then `O=S(=O)(c1ccc(-c2ncn[nH]2)cc1)N(Cc1ccc(OC(F)(F)F)cc1)c1ncc2ccccc2c1C(F)(F)F` [Example 20], with 3.2 nmol/L.

Consider `Cc1n[nH]c(-c2ccc(S(=O)(=O)N(Cc3ccc(OC(F)(F)F)cc3)c3ncc4ccccc4c3C(F)(F)F)cc2)n1` [Example 21], for which the IC50 turned out to be 1.1 nmol/L. Then `Cc1n[nH]c(-c2ccc(S(=O)(=O)N(Cc3ccc(OC(F)(F)F)cc3)c3ncc4ccccc4c3C3CC3)cc2)n1` [Example 22], with 0.6 nmol/L. Then `Cc1cc(S(=O)(=O)N(Cc2ccc(OC(F)(F)F)cc2)c2ncc3ccccc3c2C2CC2)ccc1-c1ncn[nH]1` [Example 23], with 0.5 nmol/L.

On to `O=S(=O)(c1ccc(-c2ncn[nH]2)cc1)N(Cc1ccc(C(F)(F)F)cn1)c1ncc2ccccc2c1C1CC1` [Example 24], for which the IC50 is 1.2 nmol/L. Then `Cc1n[nH]c(-c2ccc(S(=O)(=O)N(Cc3ccc(C(F)(F)F)cn3)c3ncc4ccccc4c3C3CC3)cc2)n1` [Example 25], with 0.7 nmol/L. Then `Cc1cc(S(=O)(=O)N(Cc2ccc(C(F)(F)F)cn2)c2ncc3ccccc3c2C2CC2)ccc1-c1ncn[nH]1` [Example 26], with 1 nmol/L. The value for `Cc1n[nH]c(-c2ccc(S(=O)(=O)N(Cc3ccc(C(F)(F)F)cn3)c3ncc4ccccc4c3C3CC3)cc2C)n1` [Example 27] was 0.8 nmol/L; that for `O=S(=O)(c1ccc(-c2ncn[nH]2)nc1)N(Cc1ccc(OC(F)(F)F)cc1)c1ncc2ccccc2c1C(F)(F)F` [Example 28] was 3.5 nmol/L; that for `Cc1n[nH]c(-c2ccc(S(=O)(=O)N(Cc3ccc(OC(F)(F)F)cc3)c3ncc4ccccc4c3C(F)(F)F)cn2)n1` [Example 29] was 2.2 nmol/L.

For the compound `Cc1n[nH]c(-c2ccc(S(=O)(=O)N(Cc3ccc(OC(F)(F)F)cc3)c3ncc4ccccc4c3C3CC3)cn2)n1` [Example 30], the IC50 is 1.1 nmol/L. The value for `O=c1[nH]c(-c2ccc(S(=O)(=O)N(Cc3ccc(C(F)(F)F)cn3)c3ncc4ccccc4c3C3CC3)cc2)no1` [Example 31] was 1.1 nmol/L; that for `Cc1c(N(Cc2ccc(OC(F)(F)F)cc2)S(=O)(=O)c2ccc(-c3noc(=O)[nH]3)cc2)nc(C2CC2)c2ccccc12` [Example 32] was 2.7 nmol/L; that for `O=c1[nH]c(-c2ccc(S(=O)(=O)N(Cc3ccc(OC(F)(F)F)cc3)c3ncc4ccccc4c3C(F)(F)F)cn2)no1` [Example 33] was 3.6 nmol/L. Then `Cc1cc(S(=O)(=O)N(Cc2ccc(OC(F)(F)F)cc2)c2ncc3ccccc3c2C2CC2)ccc1-c1noc(=O)[nH]1` [Example 34], with 0.5 nmol/L.

On to `O=c1[nH]c(-c2ccc(S(=O)(=O)N(Cc3ccc(OC(F)(F)F)cc3)c3ncc4ccccc4c3C3CC3)nc2)no1` [Example 35], for which the IC50 stood at 9.6 nmol/L. The value for `Cc1cc(S(=O)(=O)N(Cc2ccc(OC(F)(F)F)cc2)c2ncc3ccccc3c2C2CC2)ccc1C(=O)O` [Example 36, 4-({(4-cyclopropylisoquinolin-3-yl)[4-(trifluoromethoxy)benzyl]amino}sulfonyl)-2-methylbenzoic acid] was 1.4 nmol/L; that for `Cc1cc(S(=O)(=O)N(Cc2ccc(C(F)(F)F)cn2)c2ncc3ccccc3c2C2CC2)ccc1C(=O)O` [Example 37, 4-[((4-cyclopropylisoquinolin-3-yl){[5-(trifluoromethyl)pyridin-2-yl]methyl}amino)sulfonyl]-2-methylbenzoic acid] was 9.5 nmol/L; that for `Cc1cc(C(=O)O)ccc1S(=O)(=O)N(Cc1ccc(OC(F)(F)F)cc1)c1ncc2ccccc2c1C1CC1` [Example 38, 4-({(4-cyclopropylisoquinolin-3-yl)[4-(trifluoromethoxy)benzyl]amino}sulfonyl)-3-methylbenzoic acid] was 0.7 nmol/L. In the case of `COCc1cc(S(=O)(=O)N(Cc2ccc(OC(F)(F)F)cc2)c2ncc3ccccc3c2C2CC2)ccc1C(=O)O` [Example 39, 4-({(4-cyclopropylisoquinolin-3-yl)[4-(trifluoromethoxy)benzyl]amino}sulfonyl)-2-(methoxymethyl)benzoic acid], the IC50 is 1.4 nmol/L.
